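Each compound was tested at five concentrations against cells in 96-well plates for 48 hours. GI50 is the concentration that inhibits growth by half.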 The source made the active and inactive calls. Rule as the data show it: active = GI50 up to about 1.1 µM and inactive = higher.
What was measured:
Test in all cases: growth of human tumour cells (NCI), 48 h
EKVX = test system: EKVX
SF-539 = test system: SF-539
OVCAR-8 = test system: OVCAR-8
OVCAR-5 = test system: OVCAR-5
SF-295 = test system: SF-295
M19-MEL = test system: M19-MEL
SN12C = test system: SN12C
SK-MEL-5 = test system: SK-MEL-5
A549 = test system: A549
XF498 = test system: XF498
SNB-75 = test system: SNB-75
SF-268 = test system: SF-268
UACC-62 = test system: UACC-62
U-251 = test system: U-251
HL-60 = test system: HL-60
SK-MEL-2 = test system: SK-MEL-2
SNB-19 = test system: SNB-19

Measured: GI50

O=C(CNC(=O)OCc1ccccc1)Oc1ccccc1
inactive: EKVX > 100 µM | SF-539 > 100 µM | OVCAR-8 > 100 µM | OVCAR-5 > 100 µM | SF-295 > 100 µM | M19-MEL > 100 µM | SN12C > 100 µM | SK-MEL-5 > 100 µM | A549 > 100 µM | XF498 > 100 µM | SNB-75 > 100 µM | SF-268 > 100 µM | UACC-62 > 100 µM | U-251 > 100 µM | HL-60 > 100 µM | SK-MEL-2 > 100 µM

CC[N+](C)(C)c1ccc(C(=C2C=CC(=[N+](C)C)C=C2)c2ccc(N(C)C)cc2)cc1
inactive: EKVX 4.97 µM | SF-539 12.8 µM | OVCAR-8 12.8 µM | OVCAR-5 52 µM | SF-295 8.67 µM | M19-MEL 7.91 µM | SN12C 4.39 µM | SK-MEL-5 13.4 µM | A549 4.45 µM | XF498 15.8 µM | SNB-75 4.76 µM | SF-268 10.8 µM | UACC-62 6.55 µM | U-251 3.94 µM | HL-60 2.4 µM | SK-MEL-2 21.1 µM

COc1ccc(-c2cc(O)c3cc4c(cc3n2)OCO4)cc1OC
inactive: EKVX > 100 µM | SF-539 > 100 µM | OVCAR-8 > 100 µM | SNB-19 > 100 µM | SF-295 > 100 µM | M19-MEL > 100 µM | SN12C > 100 µM | SK-MEL-5 65.6 µM | A549 > 100 µM | XF498 > 100 µM | SNB-75 > 100 µM | SF-268 > 100 µM | UACC-62 > 100 µM | U-251 > 100 µM | HL-60 > 100 µM | SK-MEL-2 > 100 µM

COc1ccccc1-c1cc(O)c2cc3c(cc2n1)OCO3
inactive: EKVX > 100 µM | SF-539 25.1 µM | OVCAR-8 28.3 µM | SNB-19 45.3 µM | M19-MEL 32.4 µM | SN12C 45.2 µM | SK-MEL-5 5.19 µM | A549 35.6 µM | XF498 21.9 µM | SNB-75 22.1 µM | UACC-62 31.6 µM | U-251 > 100 µM | HL-60 19.5 µM | SK-MEL-2 40.8 µM

N#Cc1ccc(C2SCc3nc4ccccc4n32)cc1 (stereo not given)
inactive: EKVX 69.3 µM | SF-539 84.7 µM | OVCAR-8 76.9 µM | SNB-19 81.7 µM | SF-295 74.3 µM | M19-MEL > 100 µM | SN12C 75 µM | SK-MEL-5 32.7 µM | A549 81.8 µM | XF498 > 100 µM | SNB-75 38.5 µM | SF-268 > 100 µM | UACC-62 50.7 µM | U-251 > 100 µM | HL-60 31.3 µM | SK-MEL-2 > 100 µM

O=C(NO)c1ccc([N+](=O)[O-])cc1
inactive: EKVX 27.1 µM | SF-539 24.5 µM | OVCAR-8 25.2 µM | SNB-19 46.2 µM | SF-295 42.1 µM | M19-MEL 52.2 µM | SN12C 94.2 µM | SK-MEL-5 70.3 µM | A549 64.4 µM | XF498 73.1 µM | SNB-75 23.9 µM | SF-268 > 100 µM | UACC-62 19.7 µM | U-251 43 µM | HL-60 20.7 µM | SK-MEL-2 32.1 µM

COc1cc(C(C)O)c[n+](CCc2c[nH]c3ccccc23)c1 (stereo not given)
inactive: EKVX 48.3 µM | SF-539 > 100 µM | OVCAR-8 > 100 µM | SNB-19 > 100 µM | SF-295 > 100 µM | M19-MEL > 100 µM | SN12C > 100 µM | SK-MEL-5 > 100 µM | A549 > 100 µM | XF498 > 100 µM | SNB-75 89.9 µM | SF-268 27.1 µM | UACC-62 > 100 µM | U-251 > 100 µM | HL-60 > 100 µM | SK-MEL-2 > 100 µM
